Laboratory results: the supplement of paper PMC11061612

Key:
Assay in all cases: Bliss excess, mean over the matrix (fraction); higher = more synergy
[1] = tested on: CGTH-W-1 (Thyroid Gland Carcinoma)
Summary of the method: (§1)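 Cell lines grown in DMEM/F12 or RPMI with 10% FBS were plated in 1536-well plates and held 24 hours at 37°C, 5% CO2 before 72 hours of exposure to two-drug dose matrices, with DMSO typically at 0.2%. CellTiter-Glo 2.0 luminescence gave viability, which was converted to inhibition. Vehicle wells were set to 0 and blank wells to 1. Combination Emax is the second-highest inhibition in the matrix, and Bliss excess is the observed combination effect minus the expected EA + EB − EA·EB, where EA and EB are the single-agent effects.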

[2] = tested on: NCI-H2087 (Lung Adenocarcinoma)
Summary of the method: as §1

HCC70 (Breast Carcinoma) = tested on: HCC70 (Breast Carcinoma)
Summary of the method: as §1

[3] = tested on: KYSE-220 (Esophageal Squamous Cell Carcinoma)
Summary of the method: as §1

[4] = tested on: SK-HEP-1 (Hepatocellular Carcinoma)
Summary of the method: as §1

EB2 (Burkitt's Lymphoma) = tested on: EB2 (Burkitt's Lymphoma)
Summary of the method: as §1

[5] = tested on: UACC-812 (Breast Carcinoma)
Summary of the method: as §1

EW-7 (Ewing's Sarcoma) = tested on: EW-7 (Ewing's Sarcoma)
Summary of the method: as §1

[6] = tested on: JHH-2 (Hepatocellular Carcinoma)
Summary of the method: as §1

[7] = tested on: NCI-H1651 (Lung Adenocarcinoma)
Summary of the method: as §1

[8] = tested on: NCI-H1703 (Squamous Cell Lung Carcinoma)
Summary of the method: as §1

KP-N-YN (Neuroblastoma) = tested on: KP-N-YN (Neuroblastoma)
Summary of the method: as §1

C=CCn1c(=O)c2cnc(Nc3ccc(N4CCN(C)CC4)cc3)nc2n1-c1cccc(C(C)(C)O)n1 [AZD1775] + Nc1ccn([C@@H]2O[C@H](CO)[C@@H](O)C2(F)F)c(=O)n1 [Gemcitabine] (first compound max 1 µM, partner max 0.3 µM)
Bliss excess [1]: 0.0167 | Bliss excess [2]: 0.0247 | Bliss excess (HCC70 (Breast Carcinoma)): -0.0232 | Bliss excess [3]: 0.0029 | Bliss excess [4]: -0.029 | Bliss excess (EB2 (Burkitt's Lymphoma)): 0.0066 | Bliss excess [5]: -0.0613 | Bliss excess (EW-7 (Ewing's Sarcoma)): 0.0396 | Bliss excess [6]: 0.0264 | Bliss excess [7]: -0.0104 | Bliss excess [8]: 0.0364

C[C@@H](Oc1cc(-c2cnn(C3CCNCC3)c2)cnc1N)c1c(Cl)ccc(F)c1Cl [Crizotinib] + CC1=C(C(=CC=C1)Cl)NC(=O)C2=CN=C(S2)NC3=CC(=NC(=N3)C)N4CCN(CC4)CCO [Dasatinib] (first compound max 10 µM, 7x7, partner max 2 µM)
Bliss excess (KP-N-YN (Neuroblastoma)): -0.0895 | Bliss excess [1]: 0.0795 | Bliss excess [2]: -0.0254 | Bliss excess (HCC70 (Breast Carcinoma)): -0.0407 | Bliss excess [3]: -0.0166 | Bliss excess [4]: -0.0098 | Bliss excess (EB2 (Burkitt's Lymphoma)): 0.0112 | Bliss excess [5]: -0.0135 | Bliss excess (EW-7 (Ewing's Sarcoma)): -0.0072 | Bliss excess [6]: -0.0101 | Bliss excess [7]: -0.0149 | Bliss excess [8]: -0.0736

C[C@@H]1COCCN1c1cc(C2([S@](C)(=N)=O)CC2)nc(-c2ccnc3[nH]ccc23)n1 [AZD6738] + Nc1ccn([C@@H]2O[C@H](CO)[C@@H](O)C2(F)F)c(=O)n1 [Gemcitabine] (first compound max 10 µM, 7x7, partner max 0.3 µM)
Bliss excess [1]: 0.106 | Bliss excess [2]: 0.0743 | Bliss excess (HCC70 (Breast Carcinoma)): 0.0904 | Bliss excess [3]: -0.0686 | Bliss excess [4]: 0.0557 | Bliss excess (EB2 (Burkitt's Lymphoma)): 0.0068 | Bliss excess [5]: 0.0592 | Bliss excess (EW-7 (Ewing's Sarcoma)): 0.0313 | Bliss excess [6]: 0.0069 | Bliss excess [7]: 0.039 | Bliss excess [8]: -0.006

C[C@@H](Nc1cc(F)cc(F)c1)c1cc(C(=O)N(C)C)cc2c(=O)cc(N3CCOCC3)oc12 [AZD8186] + C1CN(CCC1(C(=O)N[C@@H](CCO)C2=CC=C(C=C2)Cl)N)C3=NC=NC4=C3C=CN4 [AZD5363] (first compound max 10 µM, 7x7, partner max 10 µM)
Bliss excess (KP-N-YN (Neuroblastoma)): -0.0765 | Bliss excess [1]: -0.0136 | Bliss excess [2]: -0.0043 | Bliss excess (HCC70 (Breast Carcinoma)): -0.0152 | Bliss excess [3]: -0.0132 | Bliss excess [4]: -0.0291 | Bliss excess (EB2 (Burkitt's Lymphoma)): -0.0292 | Bliss excess [5]: -0.0187 | Bliss excess (EW-7 (Ewing's Sarcoma)): -0.03 | Bliss excess [6]: -0.0637 | Bliss excess [7]: -0.0302 | Bliss excess [8]: 0.0503

CS(=O)(=O)CCNCc1ccc(-c2ccc3ncnc(Nc4ccc(OCc5cccc(F)c5)c(Cl)c4)c3c2)o1 [Lapatinib] + Cn1cnc2c(F)c(Nc3ccc(Br)cc3Cl)c(C(=O)NOCCO)cc21 [Selumetinib] (first compound max 10 µM, 7x7, partner max 10 µM)
Bliss excess (KP-N-YN (Neuroblastoma)): -0.0666 | Bliss excess [1]: -0.0291 | Bliss excess [2]: -0.0455 | Bliss excess (HCC70 (Breast Carcinoma)): 0.0408 | Bliss excess [3]: -0.0056 | Bliss excess [4]: -0.0163 | Bliss excess (EB2 (Burkitt's Lymphoma)): -0.0474 | Bliss excess [5]: -0.0001 | Bliss excess (EW-7 (Ewing's Sarcoma)): 0.0166 | Bliss excess [6]: -0.0273 | Bliss excess [7]: -0.0355 | Bliss excess [8]: -0.0179

Cc1c2c(nn1C)CSCc1cc(n(C)n1)CSc1cc(c3ccccc3c1)OCCCc1c(C(=O)O)n(C)c3c-2c(Cl)ccc13 [AZD5991] + Nc1ccn([C@@H]2O[C@H](CO)[C@@H](O)C2(F)F)c(=O)n1 [Gemcitabine] (first compound max 1 µM, 7x7, partner max 0.3 µM)
Bliss excess [1]: -0.0235 | Bliss excess [2]: -0.0307 | Bliss excess (HCC70 (Breast Carcinoma)): 0.0365 | Bliss excess [3]: 0.0842 | Bliss excess [4]: -0.109 | Bliss excess (EB2 (Burkitt's Lymphoma)): -0.0405 | Bliss excess [5]: -0.0041 | Bliss excess (EW-7 (Ewing's Sarcoma)): -0.0158 | Bliss excess [6]: -0.005 | Bliss excess [7]: 0.0582 | Bliss excess [8]: -0.0604

O=C(c1cc(Cc2n[nH]c(=O)c3ccccc23)ccc1F)N1CCN(C(=O)C2CC2)CC1 [Olaparib] + CC1(C)CCC(CN2CCN(c3ccc(C(=O)NS(=O)(=O)c4ccc(NCC5CCOCC5)c([N+](=O)[O-])c4)c(Oc4cnc5[nH]ccc5c4)c3)CC2)=C(c2ccc(Cl)cc2)C1 [Venetoclax] (first compound max 10 µM, 7x7, partner max 1 µM)
Bliss excess (KP-N-YN (Neuroblastoma)): 0.186 | Bliss excess [1]: -0.0433 | Bliss excess [2]: -0.0543 | Bliss excess (HCC70 (Breast Carcinoma)): -0.0472 | Bliss excess [3]: -0.0369 | Bliss excess [4]: -0.0619 | Bliss excess (EB2 (Burkitt's Lymphoma)): -0.0324 | Bliss excess [5]: -0.0202 | Bliss excess (EW-7 (Ewing's Sarcoma)): 0.0125 | Bliss excess [6]: -0.0527 | Bliss excess [7]: 0.001 | Bliss excess [8]: -0.0065

C=CCn1c(=O)c2cnc(Nc3ccc(N4CCN(C)CC4)cc3)nc2n1-c1cccc(C(C)(C)O)n1 [AZD1775] + CCc1c2c(nc3ccc(O)cc13)-c1cc3c(c(=O)n1C2)COC(=O)[C@]3(O)CC [SN-38] (first compound max 1 µM, partner max 0.3 µM)
Bliss excess (KP-N-YN (Neuroblastoma)): -0.0339 | Bliss excess [1]: -0.0747 | Bliss excess [2]: 0.0067 | Bliss excess (HCC70 (Breast Carcinoma)): -0.0528 | Bliss excess [3]: -0.0563 | Bliss excess [4]: -0.0134 | Bliss excess (EB2 (Burkitt's Lymphoma)): -0.0507 | Bliss excess [5]: -0.0472 | Bliss excess (EW-7 (Ewing's Sarcoma)): -0.0501 | Bliss excess [6]: 0.106 | Bliss excess [7]: -0.0342 | Bliss excess [8]: -0.0341

O=C(c1cc(Cc2n[nH]c(=O)c3ccccc23)ccc1F)N1CCN(C(=O)C2CC2)CC1 [Olaparib] + COc1nnc2ccc(N3CCC(c4ccc(OCCN5CCN(C)C(=O)[C@H]5C)cc4)CC3)nn12 [AZD5153] (first compound max 10 µM, 7x7, partner max 1 µM)
Bliss excess (KP-N-YN (Neuroblastoma)): -0.0142 | Bliss excess [1]: -0.0247 | Bliss excess [2]: -0.0304 | Bliss excess (HCC70 (Breast Carcinoma)): -0.0402 | Bliss excess [3]: -0.045 | Bliss excess [4]: 0.0116 | Bliss excess (EB2 (Burkitt's Lymphoma)): -0.0329 | Bliss excess [5]: -0.0384 | Bliss excess (EW-7 (Ewing's Sarcoma)): 0.0362 | Bliss excess [6]: -0.0195 | Bliss excess [7]: -0.0044 | Bliss excess [8]: -0.0244
